# System: ELIC R117A
# Assay: Asymmetric liposome stopped-flow Tl+ flux assay, mutant
# Format: biochemical, Erwinia chrysanthemi
# Conditions: 25 mol% outer leaflet POPG, 10 mM propylamine
# Description: We next tested the effect of mutations that directly interact with the phospholipid in the ELIC5 CA structure (R117, T259), or are near this site and previously shown to interact with cardiolipin (S202, R318A, T259A and W206F) (Fig. 6a)[14]. The mutations were tested as for WT by examining the effect of 25 mol% outer leaflet POPG in paired (no exchange versus exchange) samples (Supplementary Fig. 15). […] Despite the mutations having various effects on ELIC agonist responses, comparison of no exchange and exchange samples enabled assessment of the effect of POPG.
# The fluorescence sequential-mixing stopped-flow liposomal flux measurements were carried using an SX20 stopped-flow spectrofluorometer (Applied Photophysics) and Pro-Data SX software[13],[30]. […]
# Using propylamine as the agonist, the assay and analysis was carried out as previously described[13],[30]. […] After a variable delay of 10 ms to 25 s, the sample was then mixed 1:1 with a quenching buffer (90 mM NaNO3, 50 mM TlNO3, 10 mM HEPES, pH 7), and ANTS fluorescence (ex. 360 nm, fluorescence above 420 nm) was recorded for 1 s. […] The time course of desensitization was also fit to a double exponential and a weighted time constant was calculated as was done for the patch-clamp data using Origin 2019b. […]
# Acceptor liposomes were prepared as described in the Stopped-flow fluorescence recordings section until completion of the extrusion step. […]
smiles,measurement,value
"CCCCCCCC/C=C\CCCCCCCC(=O)OC(COC(=O)CCCCCCCCCCCCCCC)COP(=O)(O)OCC(O)CO (stereo not shown) [POPG, 1-palmitoyl-2-oleoyl-phosphatidylglycerol]",POPG modulation (peak response and desensitization),both effects of POPG (increased peak response and decreased desensitization) are abolished
